This note sets out measurements from patent US20220233553A1, “CELLULAR SENESCENCE ACTIVATING COMPOUNDS” (UNIVERSIDAD NACIONAL AUTONOMA DE MEXICO, priority 2019, published 2022).

The term LD50 denotes the dose at which mortality reaches 50%. What is called inhibition is how much of the control response was suppressed.

Data set [1] relates to SW-620. Put plainly: Cytotoxicity against colon cancer cell lines, 24, 48 and 72 hours. The class given is cell-based.
Data set [2] in a line: Blood parameters of the treated mice.
Data set [3] relates to HCT-116 cancer cells. Put plainly: Xenotransplantation study, antitumor activity. The class given is in vivo, mice. Conditions: for reduction in tumor size: vs untreated mouse.
Excerpt: The arrows indicate the days of compound administration, in a regimen of 1 administration per week for 3 weeks, each point represents the average and SD of 6 mice.
The arrows indicate the days of administration, with 3 administrations per week for 3 weeks, each point representing the mean±SD of 6 mice.
The test system of data set [4] is HCT-116. Description: Cytotoxicity against colon cancer cell lines, 24, 48 and 72 hours. In kind it is cell-based.
In data set [5] the test system is HCT-15. Described as above. The class given is cell-based.
In data set [6] the test system is HCT-15 (colon). Description: Effect on cell lines (CI50, % growth inhibition). The conditions noted are these: Homo sapiens; for IC50: HCT-15, read-out: CI50 ± EE, μM HCT-15 (colon). In kind it is cell-based.
The subject of data set [7] is PC-3 (prostate). Put plainly: Effect on cell lines (CI50, % growth inhibition). The conditions noted are these: for IC50: Homo sapiens, PC-3, read-out: CI50 ± EE, μM PC-3 (prostate). In kind it is cell-based.
Data set [8] concerns U251 (CNS). Put plainly: Effect on cell lines (CI50, % growth inhibition). In kind it is cell-based. Conditions: Homo sapiens; for IC50: U-251, read-out: CI50 ± EE, μM U251 (CNS).
Data set [9] deals with K562 (leukemia). Put plainly: Effect on cell lines (CI50, % growth inhibition). The class given is cell-based. The conditions noted are these: Homo sapiens; for IC50: K562, read-out: CI50 ± EE, μM K562 (leukemia).
Data set [10] deals with β-galactosidase enzyme. Put plainly: β-galactosidase activity (cellular senescence) in colon cancer cell lines. The class given is cell-based. The conditions noted are these: 72 hours, 30 μM, colon cancer cell lines HCT-116 and HCT-15. As to the method: FIG. 12. A) β-galactosidase activity in HCT-116 cells, B) β-galactosidase activity in HCT-15 cells, C) Cell control of the HCT-116 cell line, D) HCT-116 cells treated with In […] for 72 hours.
Now, as already mentioned above, the mechanism by which In exerts an antitumor effect without generating cytotoxicity on healthy cells is through the induction of cellular senescence.

Data set [11] relates to proliferating cell nuclear antigen (PCNA). Description: PCNA immunolabelling of xenotransplanted tumor tissue. Conditions: groups treated at different doses; control group 54.81%±15.63.
Data set [12] can be described thus: Toxicity in nu/nu mice (LD50, weight, physical or behavioral changes). In kind it is in vivo. An excerpt:
FIG. 7. […] Each point in the graphs represents the mean±SD of the weight of 3 mice per experimental group.

Data set [13] has as its system HCT-116 cell xenotransplantation. Put plainly: Cell morphology in tumor tissues (hematoxylin-eosin, DAPI). Conditions: tumor tissues of treated mice vs control group.
Data set [14] deals with breast (MCF-7). Description: % growth inhibition in cell lines. The class given is cell-based. Conditions: Homo sapiens, MCF7.
The test system of data set [15] is HCT-116 line. Put plainly: Apoptosis induction, double labeling with annexin V and IP. In kind it is cell-based. Conditions: 30 μM, 72 hours of treatment. The text has this:
FIG. 2. Results of the apoptosis induction using a double labeling with annexin V and IP, due to the effect of compound In.

Data set [16] deals with lung (SKUL). Description: % growth inhibition in cell lines. The class given is cell-based.
Setting [17] is: 2 mg/Kg, administration 3 (times a week).

Take `N.N.[Cl][Pt][Cl]` [Cisplatin]: the IC50 in data set [1] (SW-620, incubation 24 h) came out at 18 ± 0.5 µM; in data set [1] (SW-620, incubation 48 h), 13.9 ± 0.4 µM; in data set [1] (SW-620, incubation 72 h) it was 9.09 ± 0.3 µM; in data set [4] (HCT-116, incubation 24 h), 10.8 ± 0.7 µM; in data set [4] (HCT-116, incubation 48 h) it was 8.37 ± 0.5 µM; in [4] (HCT-116, incubation 72 h), 3.09 ± 0.3 µM. The IC50 came out at 12.5 ± 0.5 µM in [5] (HCT-15, incubation 24 h); 10.7 ± 0.6 µM in data set [5] (HCT-15, incubation 48 h); 4.68 ± 0.3 µM in data set [5] (HCT-15, incubation 72 h). In addition, the Alanine aminotransferase in data set [2] (setting [17]) is 75.21 UL; in data set [2] (4 mg/Kg, once a week) it was 62.89 UL. The Aspartate aminotransferase in [2] (setting [17]) came to 197.32 UL; in [2] (4 mg/Kg, once a week), 151.25 UL. The Creatinine in data set [2] (setting [17]) is 43.3 μM/l; in data set [2] (4 mg/Kg, once a week), 29.06 μM/l. The Erythrocytes in data set [2] (setting [17]) stood at 7.14e+12 L⁻¹; in [2] (4 mg/Kg, once a week), 7.36e+12 L⁻¹. Moreover, the Glucose in data set [2] (setting [17]) was found to be 7.80 mmol/L; in [2] (4 mg/Kg, once a week) it was 8.56 mmol/L. In addition, the Hemoglobin in data set [2] (setting [17]) came to 113 g/L; in data set [2] (4 mg/Kg, once a week) it was 115 g/L. Also, the Leukocytes in data set [2] (setting [17]) was 1.6e+09 L; in [2] (4 mg/Kg, once a week), 2.1e+09 L; in data set [2] (4 mg/kg once a week and mg/kg three times a week for 3 weeks), “decreased leukocytes”. Also, the Lymphocytes turned out to be 0.52 × × 10^9/l in data set [2] (setting [17]) and 5.2e+08 L⁻¹ in data set [2] (4 mg/Kg, once a week). For the same compound, the Urea in [2] (setting [17]) came out at 9.06 mmol/L; in data set [2] (4 mg/Kg, once a week) it was 7.57 mmol/L. For the same compound, the “tumor reduction compared with In 250 mg/kg” value in data set [3] (2 mg/kg three times a week for 21 days) is “equivalent”.

On to `CC1(C)c2oncc2C[C@]23C[C@]24CC[C@]2(C)C([C@]5(C)CC[C@H](C(C)(C)O)O5)[C@@H](O)C[C@@]2(C)C4CCC13` (some centres unmarked) [Ii], for which the IC50 in data set [6] stood at 10.2 ± 0.77 µM; in data set [7], 13 ± 3.56 µM; in [8], 11.3 ± 1.55 µM; in [9], 11 ± 1.05 µM.

With `CC(=O)O[C@H]1C[C@@]2(C)C3CCC4C(C)(C)/C(=N/O)CC[C@@]45C[C@@]35CC[C@]2(C)C1[C@]1(C)CC[C@H](C(C)(C)OC(C)=O)O1` (some centres unmarked) [Ig], the IC50 was found to be 28.9 ± 3.17 µM in data set [6], 12.6 ± 2.42 µM in data set [7], 21.4 ± 1.67 µM in data set [8] and 15.2 ± 2.35 µM in data set [9].

On to `CC(=O)O[C@H]1C[C@@]2(C)C3CCC4C(C)(C)C(=O)C=C[C@@]45C[C@@]35CC[C@]2(C)C1[C@]1(C)CC[C@H](C(C)(C)OC(C)=O)O1` (some centres unmarked) [Ic], for which the IC50 was more than 100 µM in [6], 13.9 ± 0.324 µM in data set [7], 58.4 ± 4 µM in [8] and more than 100 µM in data set [9].

As for `CC1(C)C(=O)CC[C@]23C[C@]24CC[C@]2(C)C([C@]5(C)CC[C@H](C(C)(C)O)O5)[C@@H](O)C[C@@]2(C)C4CCC13` (some centres unmarked) [In, Argentantine A], the β-galactosidase enzyme activity result in [10] is “observed predominantly in cells of the HCT-116 line”. Further, the IC50 in data set [1] (Homo sapiens, SW-620, incubation 24 h) was determined as 115.6 ± 0.4 µM; in data set [1] (Homo sapiens, SW-620, incubation 48 h), 72.46 ± 0.2 µM; in data set [1] (Homo sapiens, SW-620, incubation 72 h) it was 61.3 ± 1.2 µM; in data set [4] (Homo sapiens, HCT-116, incubation 24 h), 87.83 ± 0.7 µM; in data set [4] (Homo sapiens, HCT-116, incubation 48 h), 53.33 ± 0.2 µM; in data set [4] (Homo sapiens, HCT-116, incubation 72 h), 43.17 ± 0.4 µM. In addition, the IC50 was found to be 31.7 ± 1.1 µM in [6]; 20.2 ± 3.44 µM in data set [7]; 27.3 ± 1 µM in data set [8]; 38.6 ± 4.47 µM in data set [9]; 95.43 ± 0.6 µM in data set [5] (Homo sapiens, HCT-15, incubation 24 h); 59.7 ± 1.3 µM in data set [5] (Homo sapiens, HCT-15, incubation 48 h). The compound also yielded an IC50 in [5] (Homo sapiens, HCT-15, incubation 72 h) of 44.8 ± 0.9 µM. Further, the “quantification of PCNA (percentage of PCNA positive cells)” value in [11] was 10-20%. The entries for the “reduction in tumor size” value in data set [3] (250 mg/kg once a week for 21 days) and in [3] (500 mg/kg once a week for 21 days) were 49.1% and 48.8%, respectively. Besides, the “reduction of the tumor” value in data set [3] (250 mg/kg three times a week for 21 days, vs untreated mice) was 78.1%. Also, the “physical or behavioral changes” value in data set [12] (500 mg/kg once a week and 250 mg/kg three times a week for three weeks) is on record as “no physical or behavioral changes”. Further, the weight loss result in data set [12] (250 and 500 mg/kg) is “does not cause weight loss”. Besides, the toxicity result in [12] (500, 250 or 125 mg/kg once a week for 3 weeks, nu/nu mice) is reported as “does not show toxicity”. Further, the LD50 at 3 weeks in [12] (mouse, in vivo, intraperitoneal, nu/nu mice, read-out: mean lethal dose (LD50)) was more than 500 mg/kg. The “fragmented nuclei (DAPI labeling) as signal of cell death” value in data set [13] is recorded as “no fragmented nuclei”. For the same compound, the inhibition at 50 µM was 26.6% in data set [14]; 31.7% in data set [6] (50 μM, HCT-15); 20.2% in [7] (50 μM, PC-3); 27.3% in data set [8] (U-251, 50 μM, U251); 38.6% in data set [9] (50 μM, K562); 0% in [16]. In addition, in data set [15], the apoptosis induction result is recorded as “only induced apoptosis in the HCT-116 line”.
